# Measured values published in US20230416224A1, “PROCESSES FOR PREPARING ARIMOCLOMOL CITRATE AND INTERMEDIATES THEREOF” (ZEVRA DENMARK A/S, priority 2020, published 2023).
# Experiment: Particle size distribution of ORZY-05 by Malvern Mastersizer 3000
# Assay type: physicochemical
# Details: ORZY-05 particles, Malvern Mastersizer 3000, volume distribution
# Procedure: Further batches of ORZY-05 were prepared essentially as in Example 7 and the ORZY-05 particles were examined using Malvern Mastersizer 3000 as described in Example 11.
# Malvern Mastersizer 3000: Particle size distribution of Arimoclomol citrate (ORZY-05) was determined by light scattering using a Malvern Mastersizer 3000 particle size analyzer (Malvern Instruments Ltd, Grovewood Road, Malvern, Worcestershire WR14 1XZ, United Kingdom) with a Hydro MV wet-dispersion unit attached. 2-Propanol with 1.8 g/L SPAN-85 additive was used as a dispersion medium (“dispersant”) and added to the dispersion unit. Prior to sample addition, the background counts of the system were determined by circulating the dispersant through the measurement cell under measurement conditions (2500 rpm stirrer speed). Samples for analysis were prepared by adding a suitable amount of Arimoclomol citrate to a 10 mL vial and pre-dispersing it with dispersant under light agitation for a few seconds. The pre-dispersed sample was then pipetted into the Hydro MV dispersion unit filled with dispersant to meet a laser obscuration range of 10-15%. A single-use PE pipette was used for this and representative sampling from the 10 mL vial was ensured by continuous agitation. […] Volume distributions were obtained and the D10, D50 and D90 were calculated from these distributions and reported. For each sample, a single sample preparation was analyzed using red light measurement only. Upon measurement completion, the sample cell was emptied and cleaned.
Structure (SMILES),D10 [μm],D50 [μm],D90 [μm]
"O=C(O)CC(O)(CC(=O)O)C(=O)O.[O-][n+]1cccc(/C(Cl)=N/OC[C@H](O)CN2CCCCC2)c1 [compound 2006, arimoclomol citrate]",11.6,35.6,77.7
"O=C(O)CC(O)(CC(=O)O)C(=O)O.[O-][n+]1cccc(/C(Cl)=N/OC[C@H](O)CN2CCCCC2)c1 [compound 2005, arimoclomol citrate]",11.2,35.6,82.6
"O=C(O)CC(O)(CC(=O)O)C(=O)O.[O-][n+]1cccc(/C(Cl)=N/OC[C@H](O)CN2CCCCC2)c1 [compound 2002, arimoclomol citrate]",4.33,12.5,37.9
"O=C(O)CC(O)(CC(=O)O)C(=O)O.[O-][n+]1cccc(/C(Cl)=N/OC[C@H](O)CN2CCCCC2)c1 [compound 2001, arimoclomol citrate]",17.2,47.2,112
"O=C(O)CC(O)(CC(=O)O)C(=O)O.[O-][n+]1cccc(/C(Cl)=N/OC[C@H](O)CN2CCCCC2)c1 [compound 2004, arimoclomol citrate]",10.2,34.8,87
"O=C(O)CC(O)(CC(=O)O)C(=O)O.[O-][n+]1cccc(/C(Cl)=N/OC[C@H](O)CN2CCCCC2)c1 [compound 2003, arimoclomol citrate]",4.65,13.5,40.7

# Experiment: Particle size distribution of ORZY-05 by static automated imaging (Morphologi 4)
# Assay type: physicochemical
# Details: ORZY-05 particles
# Procedure: The materials and methods were essentially as in Example 7. In the present example, the cooling time of the cooling step of from 30° C. to 0° C. subsequent to addition of acetone was varied and its influence on the particle size of ORZY-05 was determined. The cooling time is a measure of how long it takes to reach 0° C. from 30° C. The particle size distribution (PSD) data shown in Table 3 were acquired using static automated imaging (Morphology 4).
# Morphologi 4: The Particle size distribution of Arimoclomol citrate (ORZY-05) was also measured using a Malvern Morphologi 4 equipment.
# Wet measurement was used for the needle shaped particles. […] Measurements were made using a thin path wet cell (75*75 mm). Samples were prepared by adding 20 mL of dispersant to 10 mg of API, followed by 30 s of stirring and 2 min of sonication in order to break the agglomerates. A microscope magnifier of X10 or X20 was used, and segmentation sharp edge and/or thresholding was used to improve the focus microscope focus.
Structure (SMILES),Number CE Diameter D10 [μm],Number CE Diameter D50 [μm],Number CE Diameter D90 [μm],Number CE Diameter Mean [μm],Number Length D10 [μm],Number Length D50 [μm],Number Length D90 [μm],Volume CE Diameter D10 [μm],Volume CE Diameter D50 [μm],Volume CE Diameter D90 [μm]
"O=C(O)CC(O)(CC(=O)O)C(=O)O.[O-][n+]1cccc(/C(Cl)=N/OC[C@H](O)CN2CCCCC2)c1 [18-002, arimoclomol citrate]",0.90,2.20,10.10,4.20,1.50,3.60,16.60,10.90,22.70,36.00
"O=C(O)CC(O)(CC(=O)O)C(=O)O.[O-][n+]1cccc(/C(Cl)=N/OC[C@H](O)CN2CCCCC2)c1 [17-003, arimoclomol citrate]",1.00,2.00,5.80,2.90,1.40,3.20,10.50,4.60,11.10,26.70
"O=C(O)CC(O)(CC(=O)O)C(=O)O.[O-][n+]1cccc(/C(Cl)=N/OC[C@H](O)CN2CCCCC2)c1 [18-004, arimoclomol citrate]",3.70,12.00,29.20,14.90,5.30,15.40,40.00,19.40,39.80,81.20
"O=C(O)CC(O)(CC(=O)O)C(=O)O.[O-][n+]1cccc(/C(Cl)=N/OC[C@H](O)CN2CCCCC2)c1 [18-003, arimoclomol citrate]",4.40,21.80,38.20,22.10,8.00,29.90,56.10,24.00,37.60,58.30
"O=C(O)CC(O)(CC(=O)O)C(=O)O.[O-][n+]1cccc(/C(Cl)=N/OC[C@H](O)CN2CCCCC2)c1 [17-004, arimoclomol citrate]",0.80,2.00,23.50,6.70,1.50,4.00,40.70,24.60,38.90,52.20
"O=C(O)CC(O)(CC(=O)O)C(=O)O.[O-][n+]1cccc(/C(Cl)=N/OC[C@H](O)CN2CCCCC2)c1 [17-001, arimoclomol citrate]",0.60,1.60,9.40,3.70,1.70,4.70,22.00,9.40,24.70,44.40
"O=C(O)CC(O)(CC(=O)O)C(=O)O.[O-][n+]1cccc(/C(Cl)=N/OC[C@H](O)CN2CCCCC2)c1 [17-002, arimoclomol citrate]",0.70,2.20,7.40,3.40,1.10,3.20,13.90,6.20,14.00,35.00
"O=C(O)CC(O)(CC(=O)O)C(=O)O.[O-][n+]1cccc(/C(Cl)=N/OC[C@H](O)CN2CCCCC2)c1 [18-001, arimoclomol citrate]",0.80,2.50,10.70,4.60,1.80,4.10,16.80,11.20,26.40,37.60

# Same assay, conditions: ORZY-05 particles
Structure (SMILES),"Volume CE diameter D[3,2] [μm]","Volume CE diameter D[4,3] [μm]"
"O=C(O)CC(O)(CC(=O)O)C(=O)O.[O-][n+]1cccc(/C(Cl)=N/OC[C@H](O)CN2CCCCC2)c1 [18-002, arimoclomol citrate]",17.90,23.30
"O=C(O)CC(O)(CC(=O)O)C(=O)O.[O-][n+]1cccc(/C(Cl)=N/OC[C@H](O)CN2CCCCC2)c1 [17-003, arimoclomol citrate]",8.80,13.70
"O=C(O)CC(O)(CC(=O)O)C(=O)O.[O-][n+]1cccc(/C(Cl)=N/OC[C@H](O)CN2CCCCC2)c1 [18-004, arimoclomol citrate]",33.90,45.90
"O=C(O)CC(O)(CC(=O)O)C(=O)O.[O-][n+]1cccc(/C(Cl)=N/OC[C@H](O)CN2CCCCC2)c1 [18-003, arimoclomol citrate]",35.40,41.10
"O=C(O)CC(O)(CC(=O)O)C(=O)O.[O-][n+]1cccc(/C(Cl)=N/OC[C@H](O)CN2CCCCC2)c1 [17-004, arimoclomol citrate]",34.20,38.80
"O=C(O)CC(O)(CC(=O)O)C(=O)O.[O-][n+]1cccc(/C(Cl)=N/OC[C@H](O)CN2CCCCC2)c1 [17-001, arimoclomol citrate]",17.70,25.70
"O=C(O)CC(O)(CC(=O)O)C(=O)O.[O-][n+]1cccc(/C(Cl)=N/OC[C@H](O)CN2CCCCC2)c1 [17-002, arimoclomol citrate]",11.40,17.10
"O=C(O)CC(O)(CC(=O)O)C(=O)O.[O-][n+]1cccc(/C(Cl)=N/OC[C@H](O)CN2CCCCC2)c1 [18-001, arimoclomol citrate]",19.50,25.40
